Laboratory results from the supplement of paper PMC10307832.

Key:
Assay in all cases: relative viability (nuclei count vs DMSO), 5 days (fraction); higher = more cells survive
[1] = compound: COc1nc(N)nc2c1ncn2[C@@H]1O[C@H](CO)[C@@H](O)[C@@H]1O [Nelarabine] + CS(=O)(=O)CCNCc1ccc(-c2ccc3ncnc(Nc4ccc(OCc5cccc(F)c5)c(Cl)c4)c3c2)o1 [Lapatinib] (partner 2 µM)
Procedure, shortened: (§1)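 Cells from lung cancer lines were seeded into 1536-well plates and, one day later, dosed by pin tool. Treatments were either a single drug or a fixed dose of an anchor drug with five library-drug doses (not always all listed) in √10 steps. After 5 days, nuclei were stained in a one-step fixation (final 0.05% Triton X-100, 1% formaldehyde, 1 ug/ml Hoechst) and counted on 4× images, and relative viability is the treated-to-vehicle nuclei ratio, as the median of duplicate plates.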

[2] = compound: COc1nc(N)nc2c1ncn2[C@@H]1O[C@H](CO)[C@@H](O)[C@@H]1O [Nelarabine] + CCNC(=O)c1noc(-c2cc(C(C)C)c(O)cc2O)c1-c1ccc(CN2CCOCC2)cc1 [Luminespib] (partner 0.01 µM)
Procedure, shortened: as §1

[3] = compound: COc1nc(N)nc2c1ncn2[C@@H]1O[C@H](CO)[C@@H](O)[C@@H]1O [Nelarabine]
Procedure, shortened: (§2)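 Vehicle-anchored 1536-well plates of lung cancer cell lines, held overnight at 37 °C, were pinned with five library-drug doses (not always all listed) spaced by √10. No medium change followed over the next 5 days, after which the cells were fixed, permeabilised and Hoechst-stained together and imaged at 4×. Nuclei were counted with MetaXpress, and viability is treated-well nuclei over vehicle-well nuclei, taken as a median across plates. Plates passed with control CV below 25% and at least one doubling.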

[4] = compound: C=CCn1c(=O)c2cnc(Nc3ccc(N4CCN(C)CC4)cc3)nc2n1-c1cccc(C(C)(C)O)n1 [Adavosertib]
Procedure, shortened: as §2

## EMC-BAC-2
[1]; first compound 0.01 µM
  relative viability: 1.05
[1]; first compound 0.03162 µM
  relative viability: 0.909
[1]; first compound 0.1 µM
  relative viability: 0.883
[1]; first compound 0.3162 µM
  relative viability: 0.962
[1]; first compound 1 µM
  relative viability: 0.885
[2]; first compound 0.01 µM
  relative viability: 1.41
[2]; first compound 0.03162 µM
  relative viability: 1.16
[2]; first compound 0.1 µM
  relative viability: 1.11
[2]; first compound 0.3162 µM
  relative viability: 1.22
[2]; first compound 1 µM
  relative viability: 1.28
[3]; 0.01 µM
  relative viability: 1.01
[3]; 0.03162 µM
  relative viability: 1.22
[3]; 0.1 µM
  relative viability: 1.08
[3]; 0.3162 µM
  relative viability: 0.968
[3]; 1 µM
  relative viability: 1.07
[4]; 0.03162 µM
  relative viability: 1.02
[4]; 0.1 µM
  relative viability: 1.08
[4]; 0.3162 µM
  relative viability: 0.919
